≈ marks a conversion by molar mass, not a printed value. Counter-ions that a name gives are not always drawn. One block for each compound: values may come before it.
Legend:
[1] = both forms of Compound 1 (S)-malate; comparison value, source not stated; cited from earlier work
[2] = initial development experiments (BCS classification, solubility, permeability); format: physicochemical; settings: free base
[3] = humidity stress at 40° C./75% relative humidity; format: physicochemical; settings: about 7 days
[4] = aqueous equilibrium solubility by HPLC; format: physicochemical; settings: for pH of the solubility solution: checked with pH paper; for solubility compared to malate salt of Compound 1: comparison in words; for aqueous solubility: distilled water, ambient temperature (about 25° C.), 24 hours, HPLC
Protocol: The HPLC method used to determine aqueous equilibrium solubility is outlined in Table 32.
HPLC solubility determination about 5 mg of each salt was added to a vial with distilled water (1 mL). These were stirred at ambient temperature (about 25° C.) for 24 hours. The solution was isolated by filtration through a 0.2 μm PTFE filter and was analyzed by HPLC for concentration. The pH of the solutions was checked with pH paper.

[5] = Dynamic Vapor Sorption (DVS) hygroscopicity; format: physicochemical; settings: for XRPD analysis of the post DVS sample: physical form after DVS cycle; for hygroscopicity, European Pharmacopoeia classification: weight increase at 80% RH (25° C.)
Protocol: As used herein “the European Pharmacopoeia classification” is a system whereby a chemical Compound 1s classified based on hygroscopicity. The classification is determined according to Table 2: [table] Dynamic Vapor Sorption (DVS) was performed using a Hiden Analytical Instruments IGAsorp Vapor Sorption Balance. Approximately 30 mg of sample was placed into a wire mesh vapor sorption balance pan, loaded into the IGAsorp vapor sorption balance, and held at 25° C.±0.1° C. The sample was subjected to a step profile from 0 to 90% RH at 10% increments, followed by desorption from […] to 0% RH at 10% increments. The equilibrium criterion was set to 99.0% step completion within a minimum of 60 minutes and a maximum of 5 hours for each increment. The weight change during the sorption cycle was monitored, allowing for the hygroscopic nature of the sample to be determined. The data collection interval was in seconds.

[6] = listed as Compound 1 isethionate monohydrate

- BCS class [2]: BCS class II
- solubility ([2]; in water): low solubility
- % Weight Change [3]: −0.94%
- XRPD after humidity stressing [3]: Form 1
Compound: COc1cc2nccc(Oc3ccc(NC(=O)C4(C(=O)Nc5ccc(F)cc5)CC4)cc3)c2cc1OC [Compound 1, N-{4-[(6,7-dimethoxyquinolin-4-yl)oxy]phenyl}-N′-(4-fluorophenyl) cyclopropane-1,1-dicarboxamide]

- XRPD after humidity stressing [3]: no form change
- weight loss after humidity stressing [3]: 43.17%
Compound: COc1cc2nccc(Oc3ccc(NC(=O)C4(C(=O)Nc5ccc(F)cc5)CC4)cc3)c2cc1OC [Form 3, N-{4-[(6,7-dimethoxyquinolin-4-yl)oxy]phenyl}-N′-(4-fluorophenyl) cyclopropane-1,1-dicarboxamide]

The remaining lines, values behind:

Compound: COc1cc2nccc(Oc3ccc(NC(=O)C4(C(=O)Nc5ccc(F)cc5)CC4)cc3)c2cc1OC [Compound 1 (S)-malate, S-malate salt of N-{4-[(6,7-dimethoxyquinolin-4-yl)oxy]phenyl}-N′-(4-fluorophenyl) cyclopropane-1,1-dicarboxamide]
- hygroscopicity weight gain of comparator [1]: about 0.4 % w/w

Compound: COc1cc2nccc(Oc3ccc(NC(=O)C4(C(=O)Nc5ccc(F)cc5)CC4)cc3)c2cc1OC [Form 14, N-{4-[(6,7-dimethoxyquinolin-4-yl)oxy]phenyl}-N′-(4-fluorophenyl) cyclopropane-1,1-dicarboxamide]
- pH of the solubility solution ([4]; listed as Compound 1 pyruvate): about 3
- solubility compared to malate salt of Compound 1 ([4]; listed as Compound 1 pyruvate): higher solubility
- aqueous solubility ([4]; listed as Compound 1 pyruvate): about 0.133 mg/mL
- total weight gain between 0% RH and 80% RH ([5]; DVS, 25° C., listed as Compound 1 pyruvate): 0.10 % w/w
- XRPD analysis of the post DVS sample [5]: remained unchanged
- hygroscopicity, European Pharmacopoeia classification ([5]; listed as Compound 1 pyruvate): non-hygroscopic

Compound: COc1cc2nccc(Oc3ccc(NC(=O)C4(C(=O)Nc5ccc(F)cc5)CC4)cc3)c2cc1OC [Form 20, N-{4-[(6,7-dimethoxyquinolin-4-yl)oxy]phenyl}-N′-(4-fluorophenyl) cyclopropane-1,1-dicarboxamide]
- pH of the solubility solution ([4]; listed as Compound 1 glutarate): about 3
- aqueous solubility ([4]; listed as Compound 1 glutarate): 16 µg/mL (≈ 31.9 µM)
- total weight gain between 0% RH and 80% RH ([5]; DVS, 25° C., listed as Compound 1 glutarate): 0.08 % w/w
- hygroscopicity, European Pharmacopoeia classification ([5]; listed as Compound 1 glutarate): non-hygroscopic

Compound: COc1cc2nccc(Oc3ccc(NC(=O)C4(C(=O)Nc5ccc(F)cc5)CC4)cc3)c2cc1OC [Form 27, N-{4-[(6,7-dimethoxyquinolin-4-yl)oxy]phenyl}-N′-(4-fluorophenyl) cyclopropane-1,1-dicarboxamide]
- pH of the solubility solution [4, 6]: about 2
- solubility compared to malate salt of Compound 1 [4, 6]: much higher solubility
- aqueous solubility [4, 6]: 195 µg/mL (≈ 389 µM)
- plateau of water content between 10-50% RH ([5]; DVS isotherm, 1 mol. eq.): about 3.0±0.1 % w/w
- total weight gain between 20% RH and 80% RH ([5]; DVS, 25° C.): about 2.4 % w/w
- XRPD analysis of the post DVS sample [5]: remained unchanged
- hygroscopicity, European Pharmacopoeia classification [5, 6]: hygroscopic

From patent publication US11731941B2 (Exelixis, Inc., priority 2017, dated 2023)
